The CheMixHub viscosity set

Experiment: xn = mol fraction of the nth substance listed

Cc1ccnc(C)c1 + C1CCCCC1
viscosity [mPa·s], 101 kPa
Settings | x1 = 0.1087 | x1 = 0.208 | x1 = 0.3004 | x1 = 0.407 | x1 = 0.507 | x1 = 0.6004 | x1 = 0.6977 | x1 = 0.8002 | x1 = 0.9019
303 K | 0.7378 | 0.6882 | 0.6701 | 0.6574 | 0.6585 | 0.6674 | 0.6805 | 0.7102 | 0.7412
313 K | 0.6355 | 0.6204 | 0.6004 | 0.5891 | 0.5844 | 0.6004 | 0.6055 | 0.6285 | 0.6543
323 K | 0.5624 | 0.533 | 0.5166 | 0.5092 | 0.5073 | 0.52 | 0.54 | 0.5502 | 0.583

ClC(Cl)=C(Cl)Cl + C1CCCCC1
303.15 K, 101 kPa
Settings | viscosity [mPa·s]
x1 = 0.1695 | 0.762
x1 = 0.2317 | 0.777
x1 = 0.2698 | 0.75
x1 = 0.3794 | 0.742
x1 = 0.4194 | 0.74
x1 = 0.4306 | 0.75
x1 = 0.4966 | 0.738
x1 = 0.5117 | 0.751
x1 = 0.5532 | 0.741
x1 = 0.5969 | 0.751
x1 = 0.6182 | 0.746
x1 = 0.6612 | 0.758
x1 = 0.7242 | 0.764
x1 = 0.7644 | 0.771
x1 = 0.8345 | 0.775
x1 = 0.8383 | 0.781
x1 = 0.9204 | 0.8

O=[N+]([O-])c1ccccc1 + C1CCCCC1
viscosity [mPa·s]
Settings | 298.15 K | 303.15 K | 308.15 K | 313.15 K
101 kPa, x2 = 0.1079 | – | 1.461 | – | –
101 kPa, x2 = 0.2065 | – | 1.325 | – | –
101 kPa, x2 = 0.49 | – | 1.036 | – | –
101 kPa, x2 = 0.5924 | – | 0.9727 | – | –
101 kPa, x2 = 0.701 | – | 0.9147 | – | –
101 kPa, x2 = 0.8319 | – | 0.844 | – | –
101 kPa, x2 = 0.8998 | – | 0.8149 | – | –
101.3 kPa, x1 = 0.099 | 0.9069 | 0.8365 | 0.7722 | 0.7123
101.3 kPa, x1 = 0.2037 | 0.9519 | 0.8775 | 0.8109 | 0.7485
101.3 kPa, x1 = 0.297 | – | 0.9369 | 0.8638 | 0.7984
101.3 kPa, x1 = 0.3968 | 1.089 | 1 | 0.925 | 0.8553
101.3 kPa, x1 = 0.4968 | 1.16 | 1.067 | – | 0.9115
101.3 kPa, x1 = 0.5973 | 1.247 | 1.153 | 1.065 | 0.9854
101.3 kPa, x1 = 0.6959 | 1.346 | 1.241 | 1.147 | 1.061
101.3 kPa, x1 = 0.8011 | – | 1.367 | 1.264 | 1.167
101.3 kPa, x1 = 0.893 | 1.603 | 1.481 | 1.358 | 1.254
101.3 kPa, x2 = 0.1908 | – | – | 1.385 | –
